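Results reflect a 48-hour exposure of cells in 96-well plates to compound at five concentrations. TGI marks complete inhibition of growth.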
Columns and labels:
Test in all cases: NCI-60 cell line screen, 48 h
786-0 renal = test system: 786-0 renal
A498 renal = test system: A498 renal
A549 NSCLC = test system: A549 NSCLC
ACHN renal = test system: ACHN renal
BT-549 breast = test system: BT-549 breast
CAKI-1 renal = test system: CAKI-1 renal
CCRF-CEM leukemia = test system: CCRF-CEM leukemia
COLO 205 colon = test system: COLO 205 colon
DU-145 prostate = test system: DU-145 prostate
EKVX NSCLC = test system: EKVX NSCLC
HCC-2998 colon = test system: HCC-2998 colon
HCT-116 colon = test system: HCT-116 colon
HCT-15 colon = test system: HCT-15 colon
HOP-62 NSCLC = test system: HOP-62 NSCLC
HOP-92 NSCLC = test system: HOP-92 NSCLC
HS 578T breast = test system: HS 578T breast
HT29 colon = test system: HT29 colon
IGROV1 ovarian = test system: IGROV1 ovarian
K-562 leukemia = test system: K-562 leukemia
KM12 colon = test system: KM12 colon
M14 melanoma = test system: M14 melanoma
MALME-3M melanoma = test system: MALME-3M melanoma
MCF7 breast = test system: MCF7 breast
MDA-MB-231 breast = test system: MDA-MB-231 breast
MDA-MB-435 = test system: MDA-MB-435
MDA-N = test system: MDA-N
MOLT-4 leukemia = test system: MOLT-4 leukemia
NCI-H226 lung = test system: NCI-H226 lung
NCI-H23 lung = test system: NCI-H23 lung
NCI-H460 lung = test system: NCI-H460 lung
NCI-H522 lung = test system: NCI-H522 lung
NCI/ADR-RES ovarian = test system: NCI/ADR-RES ovarian
OVCAR-3 ovarian = test system: OVCAR-3 ovarian
OVCAR-4 ovarian = test system: OVCAR-4 ovarian
OVCAR-5 ovarian = test system: OVCAR-5 ovarian
OVCAR-8 ovarian = test system: OVCAR-8 ovarian
PC-3 prostate = test system: PC-3 prostate
RPMI-8226 leukemia = test system: RPMI-8226 leukemia
RXF 393 renal = test system: RXF 393 renal
SF-268 CNS = test system: SF-268 CNS
SF-295 CNS = test system: SF-295 CNS
SF-539 CNS = test system: SF-539 CNS
SK-MEL-2 melanoma = test system: SK-MEL-2 melanoma
SK-MEL-28 melanoma = test system: SK-MEL-28 melanoma
SK-MEL-5 melanoma = test system: SK-MEL-5 melanoma
SK-OV-3 ovarian = test system: SK-OV-3 ovarian
SN12C renal = test system: SN12C renal
SNB-19 CNS = test system: SNB-19 CNS
SNB-75 CNS = test system: SNB-75 CNS
SR leukemia = test system: SR leukemia
T-47D breast = test system: T-47D breast
TK-10 renal = test system: TK-10 renal
U251 CNS = test system: U251 CNS
UACC-257 melanoma = test system: UACC-257 melanoma
UACC-62 melanoma = test system: UACC-62 melanoma
UO-31 renal = test system: UO-31 renal

Work on `Cc1c(C)c(S(=O)(=O)N(CCCCCCN)OCCCN)c(C)c2c1OC(C)(C)CC2` yielded a TGI (786-0 renal) of 11.9 µM, a TGI (A498 renal) of 40.3 µM and a TGI (A549 NSCLC) of 29 µM. The TGI (ACHN renal) was 25.6 µM, the TGI (BT-549 breast) was 28.6 µM and the TGI (CAKI-1 renal) was greater than 53.1 µM. The TGI (CCRF-CEM leukemia) was greater than 20.9 µM, the TGI (COLO 205 colon) was greater than 26.5 µM and the TGI (DU-145 prostate) was 64 µM. The TGI (EKVX NSCLC) was 19.8 µM, the TGI (HCC-2998 colon) was 3.8 µM and the TGI (HCT-116 colon) was 4.63 µM. The TGI (HCT-15 colon) was 34.7 µM, the TGI (HOP-62 NSCLC) was 15.9 µM and the TGI (HOP-92 NSCLC) was 15.2 µM. It also gave a TGI (HS 578T breast) of 13 µM, a TGI (HT29 colon) of 24.9 µM and a TGI (IGROV1 ovarian) of 4.62 µM. For the same compound, the TGI (K-562 leukemia) was greater than 28.3 µM, the TGI (KM12 colon) was 3.75 µM and the TGI (M14 melanoma) was greater than 64.1 µM. For the same compound, the TGI (MALME-3M melanoma) was 4.34 µM, the TGI (MCF7 breast) was greater than 100 µM and the TGI (MDA-MB-231 breast) was 20.1 µM. It also gave a TGI (MDA-MB-435) of 15 µM, a TGI (MDA-N) of 30.9 µM and a TGI (MOLT-4 leukemia) of 10.4 µM. The TGI (NCI-H226 lung) was 27.5 µM, the TGI (NCI-H23 lung) was 24 µM and the TGI (NCI-H460 lung) was 8.45 µM. The TGI (NCI-H522 lung) was 9.95 µM, the TGI (NCI/ADR-RES ovarian) was 33.2 µM and the TGI (OVCAR-3 ovarian) was 7.53 µM. For the same compound, the TGI (OVCAR-4 ovarian) was 8.37 µM, the TGI (OVCAR-5 ovarian) was greater than 51.4 µM and the TGI (OVCAR-8 ovarian) was 26 µM. For the same compound, the TGI (PC-3 prostate) was 17.3 µM, the TGI (RPMI-8226 leukemia) was 7.68 µM and the TGI (RXF 393 renal) was 15.6 µM. For the same compound, the TGI (SF-268 CNS) was 22.5 µM, the TGI (SF-295 CNS) was 22.6 µM and the TGI (SF-539 CNS) was greater than 100 µM. For the same compound, the TGI (SK-MEL-2 melanoma) was 6.13 µM, the TGI (SK-MEL-28 melanoma) was 71.9 µM and the TGI (SK-MEL-5 melanoma) was greater than 35.6 µM. The TGI (SK-OV-3 ovarian) was 25.2 µM, the TGI (SN12C renal) was greater than 100 µM and the TGI (SNB-19 CNS) was 12.9 µM. It also gave a TGI (SNB-75 CNS) of 11 µM, a TGI (SR leukemia) greater than 31.6 µM and a TGI (T-47D breast) greater than 47.1 µM. It also gave a TGI (TK-10 renal) of 32.8 µM, a TGI (U251 CNS) greater than 20.7 µM and a TGI (UACC-257 melanoma) of 29.7 µM. It also gave a TGI (UACC-62 melanoma) of 30.6 µM and a TGI (UO-31 renal) of 28.6 µM.

From PubChem BioAssay (NCI)
